Earlier results on 1 molecule are cited in patent US20230404937A1, “NOVEL DISINTEGRATION ORAL FILM FORMULATION WITH A CONTROLLED OR SUSTAINED ACTIVE RELEASE” (INTELGENX CORP., priority 2022, published 2023).

The conditions of the data set: when orally ingested; first metabolized in the liver.

The structures appear in SMILES notation.

With `CCCCCc1cc(O)c2c(c1)OC(C)(C)[C@@H]1CCC(C)=C[C@@H]21` [THC, tetrahydrocannabinol], the oral bioavailability is recorded as 5%.
